Calls of active or inactive are those of the source. The rule behind the calls is not given here.
How the values were obtained:
Hepatitis C virus = assay: Antiviral activity against Hepatitis C virus infected in human HuH7 cells; format: functional, organism-based; details: Hepacivirus hominis; Huh-7
[1] = Intrinsic clearance in human liver microsomes; format: ADME; details: read-out: CLH
[2] = Octanol-neutral aqueous buffer partition coefficient, log D of the compound at pH 7.4; format: physicochemical
[3] = Clearance in rat at 1 mg/kg, iv; format: ADME, organism-based; set-up: dose 1 mg/kg, route intravenous; details: in vivo
[4] = Volume of distribution at steady state in rat at 1 mg/kg, iv; format: ADME, organism-based; set-up: dose 1 mg/kg, route intravenous; details: in vivo, read-out: Vdss
[5] = Terminal half life in rat at 1 mg/kg, iv; format: ADME, organism-based; set-up: dose 1 mg/kg, route intravenous; details: in vivo, read-out: beta t1/2 (converted)
[6] = Oral bioavailability in rat at 2 mg/kg administered as solution; format: ADME, organism-based; details: in vivo
[7] = Oral bioavailability in rat at 2 mg/kg administered as suspension; format: ADME, organism-based; details: in vivo
[8] = Oral bioavailability in rat at 2 mg/kg administered as nano suspension; format: ADME, organism-based; details: in vivo
[9] = Clearance in dog at 0.1 mg/kg, iv; format: ADME, organism-based, Canis lupus familiaris; set-up: dose 0.1 mg/kg, route intravenous; details: in vivo
[10] = Volume of distribution at steady state in dog at 0.1 mg/kg, iv; format: ADME, organism-based, Canis lupus familiaris; set-up: dose 0.1 mg/kg, route intravenous; details: in vivo, read-out: Vdss
[11] = Terminal half life in dog at 0.1 mg/kg, iv; format: ADME, organism-based, Canis lupus familiaris; set-up: dose 0.1 mg/kg, route intravenous; details: in vivo, read-out: beta t1/2 (converted)
[12] = biological target: T1, Adenosine receptor A1 (Homo sapiens) (UniProt P30542); assay: Inhibition of adenosine A1 receptor (unknown origin) at 10 uM relative to control
T1 sequence (whole entry): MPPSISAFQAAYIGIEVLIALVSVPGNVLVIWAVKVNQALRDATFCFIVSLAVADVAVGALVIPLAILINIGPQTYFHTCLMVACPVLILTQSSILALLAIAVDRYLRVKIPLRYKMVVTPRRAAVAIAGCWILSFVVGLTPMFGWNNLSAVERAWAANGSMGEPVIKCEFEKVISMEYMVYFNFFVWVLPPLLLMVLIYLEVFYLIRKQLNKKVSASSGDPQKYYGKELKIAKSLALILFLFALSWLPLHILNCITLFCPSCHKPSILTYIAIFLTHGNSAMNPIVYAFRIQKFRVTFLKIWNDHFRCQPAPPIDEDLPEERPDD

[13] = biological target: Acetylcholinesterase (Homo sapiens) (UniProt P22303); assay: Inhibition of human acetylcholinesterase at 10 uM relative to control
Sequence of Acetylcholinesterase (Homo sapiens) (P22303 whole entry): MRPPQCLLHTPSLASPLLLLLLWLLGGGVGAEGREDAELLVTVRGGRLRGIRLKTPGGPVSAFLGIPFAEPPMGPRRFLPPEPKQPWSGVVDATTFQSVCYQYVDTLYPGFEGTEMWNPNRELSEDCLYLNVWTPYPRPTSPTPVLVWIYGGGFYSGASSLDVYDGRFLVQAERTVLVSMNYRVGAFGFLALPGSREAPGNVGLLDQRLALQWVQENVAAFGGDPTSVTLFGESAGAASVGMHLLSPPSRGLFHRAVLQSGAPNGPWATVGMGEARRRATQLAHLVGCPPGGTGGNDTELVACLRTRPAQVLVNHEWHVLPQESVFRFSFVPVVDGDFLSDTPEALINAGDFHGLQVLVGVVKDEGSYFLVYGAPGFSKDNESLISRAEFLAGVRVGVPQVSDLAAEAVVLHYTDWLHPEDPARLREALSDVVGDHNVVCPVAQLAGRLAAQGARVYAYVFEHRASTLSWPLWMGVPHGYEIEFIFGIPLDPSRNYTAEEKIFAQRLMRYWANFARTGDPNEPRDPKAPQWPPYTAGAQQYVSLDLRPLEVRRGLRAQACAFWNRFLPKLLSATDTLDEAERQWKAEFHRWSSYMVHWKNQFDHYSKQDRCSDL

[14] = biological target: Adenosine receptor A2a (Homo sapiens) (UniProt P29274); assay: Inhibition of adenosine A2A receptor (unknown origin) at 10 uM relative to control
Sequence of Adenosine receptor A2a (Homo sapiens) (P29274 whole entry): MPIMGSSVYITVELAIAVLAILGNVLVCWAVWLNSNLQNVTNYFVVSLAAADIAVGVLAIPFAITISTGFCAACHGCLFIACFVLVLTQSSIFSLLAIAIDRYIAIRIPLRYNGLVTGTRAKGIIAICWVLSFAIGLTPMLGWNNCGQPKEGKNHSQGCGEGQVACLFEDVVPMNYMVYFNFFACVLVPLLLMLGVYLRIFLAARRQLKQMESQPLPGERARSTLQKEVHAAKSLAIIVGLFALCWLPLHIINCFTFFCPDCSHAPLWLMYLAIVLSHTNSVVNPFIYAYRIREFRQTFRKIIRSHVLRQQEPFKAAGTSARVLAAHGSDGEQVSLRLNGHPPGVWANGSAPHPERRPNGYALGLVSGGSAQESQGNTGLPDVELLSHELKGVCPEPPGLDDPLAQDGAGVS

Mus musculus = assay: Stimulation of IFN-alpha production in po dosed CD-1 mouse; format: functional, organism-based

## Cc1nc(N)c2sc(=O)n(Cc3ccccc3)c2n1
Hepatitis C virus
  Activity: inactive

## Cc1nc(N)c2nc(O)n(Cc3ccccc3)c2n1
[1]
  microsomal CLint: < 7 µL/min/mg
Hepatitis C virus
  Activity: inactive

## CC(C)c1cc2c([nH]c(=O)n2Cc2ccccc2)c(N)n1
[1]
  microsomal CLint: < 7 µL/min/mg
[2]
  logD: 3.1

## Cc1nc(N)c2c(n1)N(Cc1ccccc1)C(=O)C2
[1]
  microsomal CLint: < 7 µL/min/mg
[2]
  logD: 2
Hepatitis C virus
  Activity: inactive

## Nc1cc(C2CC2)nc2c(Cc3ccccc3)c(=O)[nH]n12
[1]
  microsomal CLint: < 7 µL/min/mg
[2]
  logD: 1.6
Hepatitis C virus
  Activity: inactive

## Cc1cc(N)c2[nH]c(=O)n(Cc3ccccc3)c2n1
[1]
  microsomal CLint: < 7 µL/min/mg
[2]
  logD: 2.3
Hepatitis C virus
  Activity: inactive

## Nc1nc(C(F)(F)F)cc2c1[nH]c(=O)n2Cc1ccccc1
[1]
  microsomal CLint: < 7 µL/min/mg
[3]
  clearance: 33 mL/min/kg
[4]
  Vd: 2.7 L/kg
[5]
  half-life: 1 h
[6]
  bioavailability: 48%
[7]
  bioavailability: 69%
[8]
  bioavailability: 71%
[9]
  clearance: 6 mL/min/kg
[10]
  Vd: 2.3 L/kg
[11]
  half-life: 5.5 h
[12]
  inhibition: 29%
[13]
  inhibition: 70%
[14]
  inhibition: 32%
Mus musculus
  EC50: 58 nM

## O=c1[nH]c2cnc(C(F)(F)F)cc2n1Cc1ccccc1
[1]
  microsomal CLint: < 7 µL/min/mg
[2]
  logD: 3.1

## Cc1nc(N)c2c(n1)N(Cc1ccccc1)C(=O)NC2
[1]
  microsomal CLint: 16 µL/min/mg
[2]
  logD: 1.6
Hepatitis C virus
  Activity: inactive

## Nc1nccc2c1[nH]c(=O)n2Cc1ccccc1
[1]
  microsomal CLint: < 7 µL/min/mg
[2]
  logD: 1.9

## Cc1nc(N)c2[nH]c(=O)n(Cc3ccccc3)c2c1C
[1]
  microsomal CLint: < 7 µL/min/mg
[2]
  logD: 2.6
Hepatitis C virus
  Activity: inactive

## CCCc1cc2c([nH]c(=O)n2Cc2ccccc2)c(N)n1
[1]
  microsomal CLint: 14 µL/min/mg
[2]
  logD: 3.1

## Cc1cc2c([nH]c(=O)n2Cc2ccccc2)c(N)n1
[1]
  microsomal CLint: < 7 µL/min/mg
[2]
  logD: 2.3
Hepatitis C virus
  Activity: inactive

## COCCNc1nc(N)c2c(O)nn(Cc3ccccc3)c2n1
Hepatitis C virus
  Activity: inactive

## O=c1[nH]n2c(O)nc(C3CC3)cc2c1Cc1ccccc1
[1]
  microsomal CLint: < 7 µL/min/mg
[2]
  logD: 1.7
Hepatitis C virus
  Activity: inactive
